Source: patent US12370183B2, “Compositions and methods for treating malaria” (Rutgers, The State University of New Jersey, priority 2020, dated 2025)
Like-named read-outs stand apart in the source and are kept apart here.

Key:
Pf Dd2 = experiment: P. falciparum (Dd2 strain) asexual blood stage assay, Pf Dd2; assay type: cell-based; settings: Plasmodium falciparum, DD2, 72 h, read-out: Pf Dd2 IC50 (uM)
Protocol: (§1) Assays using human blood cells infected with Plasmodium falciparum: (Pf) parasites, both wild-type strains as well as mutant drug-resistant strains, were performed as described below. Wild-type strains used were aatB Pf (Dd2 strain) and Pf (Dd2 strain). Mutant strains used were proguanil resistant attb Pf (Dd2 strain), dihydroorotate dehydrogenase (DHODH) deficient aatB Pf (Dd2 strain), and DHODH deficient and proguanil resistant Pf (Dd2 strain).
(§2) 2008 Jul. 1; 105(26):9059-64.
(§3) Parasitemia was estimated by blood smear Giemsa stain and visual inspection under the microscopic.
(§4) The screening plate was prepared by centrifuging for parasite culture for 5 min at 800×g at RT (low brake) and removing supernatant. A parasite suspension was prepared with 0.3% parasitemia and 4% hematocrit in screening medium (SM). The suspension was gassed with a gas mixture of 1% oxygen, 3% carbon dioxide, 96% nitrogen and stored at 37° C. for until ready to use. […]
(§5) 2 μl of detection reagent mixture (10×SYBR Green I (Invitrogen) in Lysis buffer (20 mM Tris/HCl, 5 mM EDTA, 0.16% Saponin wt/vol, 1.6% Triton X vol/vol) was added. Assay plates were read from the bottom by using the 2104 EnVision® Multilabel Reader (PerkinElmer) (485 nm excitation, 530 nm emission). The results are presented in Table 5 below.

[1] = system: resistant P. falciparum variant K1; experiment: Potency against resistant P. falciparum variant K1 (EC50); assay type: cell-based; settings: Plasmodium falciparum
[2] = system: DHODH deficient + Proguanil resistant Pf Dd2; experiment: P. falciparum (Dd2 strain) asexual blood stage assay, DHODH deficient + proguanil resistant; assay type: cell-based; settings: Plasmodium falciparum, DD2, 72 h, read-out: DHODH deficient + Proguanil resistant Pf Dd2 IC50 (uM)
Protocol: as §1, §2, §3, §4, §5

[3] = Stability of the pyrrolinone to acid followed by H-1 NMR; assay type: physicochemical; settings: methanol-D4, deuterated acetic acid dropwise; reversed by sodium hydride
Protocol: Without wishing to be bound by any particular theory or mechanism of action, it can be contemplated that the unique aminal structure of the pyrrolinones imparts specific chemical behavior. Aminals are normally unstable functionalities that are prone to hydrolysis. To test the stability of the […], a solution of 177 in methanol-D4 was treated dropwise with deuterated acetic acid. The experiment was followed by H-1 NMR analysis by observing the reduction of the peaks at 6.12 ppm and 8.73 ppm and the appearance of a peak at 9.42. […] Basifying the solution with sodium hydride returns the mixture to pyrrolinone.

SMILES	IC50 (Pf Dd2) [µM]	EC50 ([1]; K1, read-out: K1 EC50) [µM]	EC50 ([1]; K1, read-out: K1 EC50 (μM)) [µM]	IC50 [2] [µM]	stability to acid, in words [3]
O=C(Nc1ccc(F)c(F)c1)c1c2c(nc3ccccc13)CCN(Cc1ccccc1)C2 [Compound 66, 2-Benzyl-N-(3,4-difluorophenyl)-1,2,3,4-tetrahydrobenzo[b][1,6]naphthyridine-10-carboxamide]	0.302	0.0108	0.279	0.028	–
O=C1c2c3c(nc4ccccc24)CCN(Cc2ccccc2)C3N1c1ccc(F)c(F)c1 (stereo not shown) [Compound 177, 3-Benzyl-2-(3,4-difluorophenyl)-2a,3,4,5-tetrahydrobenzo[b]pyrrolo[4,3,2-de][1,6]naphthyridin-1(2H)-one]	0.0063	–	–	0.0103	Acidification causes the compound to begin conversion into another substance
